Data from US20240400549A1, “COMPOUNDS AND THEIR USES FOR TREATING NEURODEGENERATIVE DISEASE” (Academia Sinica, priority 2021, published 2024).

Key:
YFP—C-TDP-43 aggregates = target: T1, YFP—C-TDP-43 aggregates (Homo sapiens, UniProt Q13148); experiment: YFP-C-TDP-43 aggregates in transgenic C. elegans (confocal imaging); format: in vivo; conditions: 5 μM I-1b; compared to DMSO control or MG132-treated group
T1 construct: IW33 [Psnb-l:C-TDP-43219-414-YFP (iwIs22)]; expressed in transfected cells; host or cells: transgenic C. elegans strain IW33 (pan-neuronal snb-1 promoter)
Description: (§1) The YFP—C-TDP-43 transgenic strains of C. elegans generated in this study were IW33 [Psnb-l:C-TDP-43219-414-YFP (iwIs22)]. The strains of nematodes were maintained with standard procedure and grown at 20° C. as previously described (Zhang, T. et al. Hum. Mol. Genet. 2011, 20 (10), 1952). For all assays, the transgenic young two-day (80 hours) adults were used. For larvae synchronization, the eggs were isolated by lysing gravid adult worms with freshly prepared bleaching solution (0.5 mL 5 M NaOH with 1 mL bleach) and incubated in S buffer (recipe) for overnight. For drug treatments, compound I-1b and/or DMSO were solely or along with MG132 applied to fresh NGM plates prior to installing the synchronized C. elegans. The body bends of the corresponding treatment in a duration of 30 seconds of the various strains were documented through SMZ800N stereomicroscope equipped with a CCD camera (Nikon). A body bend was counted as the head of C. elegans travels across the mid-body in 1×PBS buffer. Then, the bending videos of C. elegans were analyzed by ImageJ with the wrMTrck plugin (Nussbaum-Krammer, C. I. et al. J. Vis. Exp. 2015, (95), 52321). […]
(§2) As YFP—C-TDP-43 readily forms cytosolic aggregates in nervous system, the YFP—C-TDP-43 aggregates both in the neuron processes and neuron bodies of the ventral cord were monitored. […]

[1] = tested on: YFP—C-TDP-43 transgenic C. elegans; experiment: Swimming (thrashing) body bend assay of YFP-C-TDP-43 transgenic C. elegans; format: in vivo; conditions: YFP—C-TDP-43 C. elegans, swimming in buffer, 30 seconds
Description: as §1, §2

[2] = target: T2, C-TDP-43 oligomeric intermediates (Homo sapiens, UniProt Q13148); experiment: FLIM-FRET of C-TDP-43 oligomeric intermediates in Neuro-2a cells; format: cell-based, mouse
T2 construct: expressed in transfected cells; host or cells: Neuro-2a (mouse neuroblastoma)
Description: To study the EFRET of oligomeric intermediates of C-TDP-43, we seeded 2×10^6 cells/dish of Neuro-2a cells in sterile 35 mm μ-Dish and transfected with either both 0.55 μg eGFP-C-TDP-43 and 0.55 μg mCherry-C-TDP-43 or both 0.55 μg eGFP and 0.55 μg mCherry (negative control) plasmids. After 2 hours, compound I-1b was delivered to the experimental group. After 48 h incubation, the Neuro-2a cells were fixed (4% paraformaldehyde in 15 min and stored in 1×PBS buffer) and further analyzed by Q2 FastFLIM system (ISS Inc.). The Neruo2a cells were monitored and captured under oil-immersion objective observation (Nikon Plan Apo 100×/numerical aperture (NA) 1.4). […]
The fitting method of the FastFLIM images were described in the “Experimental Section” of a previous publication (He, R. Y et al. Adv. Sci. 2020, 7 (2), 1901165). […] The FRET efficiency of oligomeric intermediates was calculated by the formula: […]
wherein τD is donor lifetime of eGFP only, and τDA denotes lifetime of intermediates. Then, the EFRET of each pixel to form the FRET maps as well as the histogram of EFRET (FIG. 12B) were calculated by ISS Software VistaVision. […]
To assess C-TDP-43 oligomeric intermediates, fluorescence lifetime imaging microscopy (FLIM) was employed to measure the efficiency of Forster resonance energy transfer (EFRET) of the fluorescence protein-tagged C-TDP-43 in the presence or absence of compound I-1b. […]

[3] = target: T3, eGFP-C-TDP-43 oligomeric intermediates (Homo sapiens, UniProt Q13148); experiment: Size-exclusion chromatography and slot blot with oligomer-specific antibody A11; format: cell-based, mouse; conditions: lysate of Neuro-2a cells overexpressing eGFP-C-TDP-43, 48 h
T3 construct: expressed in transfected cells; host or cells: Neuro-2a (mouse neuroblastoma)
T3 sequence (Q13148 208-414 limits assumed): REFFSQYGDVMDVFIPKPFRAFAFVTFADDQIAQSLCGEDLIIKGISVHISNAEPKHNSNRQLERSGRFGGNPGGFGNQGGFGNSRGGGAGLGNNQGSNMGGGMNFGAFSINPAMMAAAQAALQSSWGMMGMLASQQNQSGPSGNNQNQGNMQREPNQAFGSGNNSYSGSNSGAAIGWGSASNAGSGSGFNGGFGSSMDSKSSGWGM

T2 sequence (Q13148 208-414 limits assumed): as above
T2 sequence (Q13148 208-414 limits assumed): as above
T1 sequence (Q13148 219-414 limits assumed): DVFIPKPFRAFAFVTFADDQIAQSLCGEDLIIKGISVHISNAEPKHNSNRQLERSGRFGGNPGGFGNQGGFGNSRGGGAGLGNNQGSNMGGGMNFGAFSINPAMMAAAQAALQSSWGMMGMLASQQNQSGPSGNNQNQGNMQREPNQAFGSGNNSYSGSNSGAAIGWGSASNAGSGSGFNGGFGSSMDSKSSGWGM

## CN(C)c1ccc(-c2nc3ccc(OCCOCCOCCNc4cccc5c4C(=O)N(C4CCC(=O)NC4=O)C5=O)cc3s2)cc1 (centres unmarked) [I-1b, 4-((2-(2-(2-((2-(4-(dimethylamino)phenyl)benzo[d]thiazol-6-yl)oxy)ethoxy)ethoxy)ethyl)amino)-2-(2,6-dioxopiperidin-3-yl)isoindoline-1,3-dione]
YFP—C-TDP-43 aggregates
  YFP—C-TDP-43 aggregates in neuron processes and neuron bodies of the ventral cord: fewer aggregates with reduced fluorescence intensity
[1]
  increase of bending frequency as compared to the DMSO control group: 28%
[2]; Neuro-2a cells expressing 2FP—C-TDP-43, 48 h, 28.12% without compound, 3.36% negative control
  averaged EFRET value: 22.4%
[2]; Neuro-2a cells, decreased from 48.92% without compound
  EFRET of the C-TDP-43 oligomeric intermediates (statistically, ISS VistaVision): 40.11%
[3]
  A11 signal intensity in SEC fractions 9-11 (oligomeric intermediates): significantly reduced
